{"source": "patent US12285440B2", "about": "“APOE4 impairs myelination via altered cholesterol biosynthesis and transport in oligodendroglia” (Massachusetts Institute of Technology, priority 2021, dated 2025)", "key": {"[1]": {"test_system": "APOE4 iPSC-derived oligodendroglia", "experiment": "APOE oligodendroglia drug treatment, bodipy-cholesterol and bodipy lipid droplet staining", "assay_type": "cell-based, human", "settings": "for total bodipy-cholesterol staining: APOE4 oligodendroglia treated two weeks (Atorvastatin 1 μM, Simvastatin 1 μM, Cyclodextrin 10 mM), compared with APOE3/3 oligodendroglia", "description": "It was reasoned that inhibiting cholesterol biosynthesis and/or facilitating cholesterol transport in APOE4 oligodendrocytes may reduce intracellular accumulation and improve myelination.\nCells were plated onto a Millipore eight-chamber glass slide, at a density of 250,000 cells per well. Cells were then cultured in Neurobasal media, supplemented with PDGFR-α, NT3 and β-FGF. […] Cells were fixed with 4% PFA, and stained for Bodipy-cholesterol, WGA-555 and DAPI."}, "[2]": {"test_system": "APOE4 oligodendroglia/iNeuron co-cultures", "experiment": "In vitro myelination assay, oligodendroglia/iNeuron co-cultures, MBP and neurofilament staining", "assay_type": "cell-based, human", "settings": "APOE4 co-cultures treated 6 weeks", "from_the_text": "To further investigate the effect of APOE4 on myelination an in vitro model of myelination was developed that employs the genetically controlled isogenic APOE cells derived from CRISPR-edited iPSCs. To achieve this, iPSC-derived oligodendroglia were co-cultured with neurons induced from iPSCs using NGN2 overexpression (iNeurons) in a three-dimensional extracellular matrix that allows each cell type to interact with other cells and self-assemble into tissue-like structures (FIG. 10D). After 2 weeks in these 3D co-cultures, MBP-positive oligodendroglia spread across the culture and engage neurofilament-positive axons (FIG. 10E). After 6 weeks in culture, myelin-associated proteins 04 and Mbp encircled numerous neurofilaments, mimicking biological processes critical to myelination (FIG. 10E). […] Therefore, it was sought to use this in vitro myelination assay to assess the effect of APOE4 on myelin-associated phenotypes in human cells. Consequently, oligodendroglia/iNeuron co-cultures from two different APOE4/4 and APOE3/3 isogenic sets of iPSC-derived cells were established. […]\nTo determine whether cyclodextrin-induced cholesterol reduction in APOE4 oligodendroglia affected myelination, APOE4 oligodendroglia/iNeuron co-cultures were treated with cyclodextrin for 6 weeks and then assessed myelination phenotypes (FIG. 4C). […]"}, "APOE4KI mice [3]": {"test_system": "APOE4KI mice", "experiment": "Cyclodextrin treatment of APOE4KI mice, brain immunohistochemistry (bodipy-cholesterol, Olig2, Mbp)", "assay_type": "in vivo, mouse", "settings": "2 g/kg subcutaneous twice a week for eight weeks, vs saline control", "description": "It was next assessed whether cyclodextrin could reduce aberrant cholesterol accumulation in oligodendrocytes and promote increased myelination in APOE4KI mice in vivo. APOE4KI mice were treated with subcutaneous injections of cyclodextrin or saline (control) for eight weeks (n=5 control and 4 cyclodextrin treated mice). […] To more directly assess myelination in cyclodextrin treated APOE4 mice, TEM-based ultrastructural analysis was performed.\nAnimals were anaesthetized via exposure to gaseous isoflurane, and transcardially perfused with ice-cold PBS. The brains were dissected out, one hemisphere frozen in dry ice, and one hemisphere drop-fixed in 4% paraformaldehyde. The post-fixed hemisphere was sliced at a thickness of 40 μm using a Leica vibratome. Slices were blocked with a buffer containing 0.3% Triton-X and 10% normal donkey serum for two hours at room temperature, before being incubated with primary antibody overnight at 4° C. Slices were then washed with PBS and incubated with secondary antibody for two hours at room temperature, washed with PBS again, and mounted. Slides were imaged using a Zeiss LSM 880 microscope, and analyzed using the ImageJ “FIJI” or Imaris softwares. Human brain tissue slices were further incubated with TrueBlack for five minutes prior to mounting, to reduce auto-fluorescence.\n(§1) APOE4KI female mice were injected subcutaneously with either 200 μL Cyclodextrin (2 g/kg) or 200 μL saline, twice a week for eight weeks."}, "APOE4KI mice [4]": {"test_system": "APOE4KI mice", "experiment": "Novel object recognition task", "assay_type": "in vivo, mouse", "settings": "female APOE4KI mice, control n=12, cyclodextrin n=14", "description": "(§2) To investigate whether the increased myelination observed in cyclodextrin treated APOE4KI mice could promote functional improvements, the novel object recognition assay was performed to evaluate learning and memory (FIG. 4G)^57.\nas §1\n(§3) Mice were placed in an open field arena and allowed to move freely for ten minutes. The total distance moved and time mice spent in the center of the arena was tracked using the EthoVision XT software from Noldus. 24 hours later, mice were then placed into the same arena containing two objects and allowed to freely investigate both for a period of eight minutes. After an interval of four hours, mice were then placed back in the chamber with one novel object and one familiar object. The preference index was calculated by determining how much time an animal spent with its nose interacting with the novel object, divided by the total time an animal spent interacting with either object."}, "APOE4KI mice [5]": {"test_system": "APOE4KI mice", "experiment": "Open field task", "assay_type": "in vivo, mouse", "settings": "cyclodextrin-treated vs control APOE4KI mice", "description": "as §2, §1, §3"}, "CYP46A1": {"test_system": "CYP46A1", "settings": "APOE4 oligodendroglia treated two weeks, vs untreated APOE4 controls"}, "APOE4KI mice [6]": {"test_system": "APOE4KI mice", "experiment": "Cyclodextrin treatment of APOE4KI mice, TEM of corpus callosum (g-ratio)", "settings": "n=150 neurons, 2 g/kg subcutaneous twice a week for eight weeks, vs control mice"}, "iMGLs [7]": {"test_system": "iMGLs", "experiment": "Calcium imaging of Fluo-4 AM labeled iMGLs with compound uncaging", "assay_type": "cell-based, human", "settings": "uncaging at 405 nm; for amplitude of calcium transients upon uncaging: 1 mM Caged NMDA or 1 mM Caged Glutamate"}, "iMGLs [8]": {"test_system": "iMGLs", "experiment": "Whole-cell patch-clamp of iMGLs, ATP-evoked currents", "assay_type": "cell-based, human", "settings": "local application of 100 μM"}, "[9]": {"test_system": "excitatory neurons generated by the rapid induction of NGN2 expression", "experiment": "MEA recording of NGN2-induced neurons treated with cholesterol", "assay_type": "cell-based, human", "from_the_text": "(§4) Cholesterol is essential for proper neuronal physiology, and cholesterol depletion is known to impair neurotransmission. Since we detect extracellular accumulation of cholesterol in APOE4 iMGLs, we wondered what the impact of exogenous cholesterol treatment would be to these neuronal cultures. Due to the extended culture times of spheroids, we opted to conduct these studies with excitatory neurons generated by the rapid induction of NGN2 expression. […] To further dissect the physiological process that renders neurons less excitable upon treatment with exogenous cholesterol, we next assessed iPSC-derived neurons by patch-clamp electrophysiology. […] Potentiation of Kir currents is aligned with our observation in cells recorded on MEA, as strong inwardly-rectifying potassium currents are known to hyperpolarize resting membrane potentials and decrease neuronal excitability.\nDissociated spheroids or NGN2-induced neurons were plated as a 10 μl droplet in Poly-D-Lysine (Sigma-Aldrich) coated wells of a CytoView MEA 48-well plate (Axion BioSystems; M768-tMEA-48B). […] Spontaneous neural activity was recorded for 30 minutes at a sampling rate of 12.5 kHz and an adaptive threshold set at 5.5 times the standard deviation of baseline noise was used for spike detection. […]"}, "[10]": {"test_system": "dissociated spheroid cultures", "experiment": "Patch-clamp electrophysiology of dissociated spheroid neurons with exogenous cholesterol", "assay_type": "cell-based, human", "settings": "1 mM cholesterol in external solution", "from_the_text": "as §4\nWhole-cell patch-clamp recordings of neurons were performed at 6 to 8 weeks after spheroid dissociation and 2D plating, or for iMGLs after 2 to 4 weeks of iMGL differentiation. […] Membrane potentials were typically kept between −50 mV to −70 mV depending on whether neurons or iMGLs were being recorded. In voltage-clamp mode, currents were recorded with voltage steps ranging from −160 mV to +80 mV. […] ATP-evoked currents were recorded by local application of 100 μM (Sigma-Aldrich; #A9187). […]"}, "forebrain spheroids": {"test_system": "forebrain spheroids", "assay_type": "cell-based, human"}}, "note": "Entries after “also recorded” stand apart in the source; their conditions may differ."}
{"molecule": "2-hydroxypropyl-β-cyclodextrin", "values": [{"measurement": "total bodipy-cholesterol staining", "setting": "[1]", "value": "reduced bodipy-cholesterol staining that was not significantly different (p>0.9999) from that in APOE3 oligodendroglia"}, {"measurement": "neutral lipid droplets measured by bodipy staining", "setting": "[1]; cyclodextrin-treated vs control APOE4 oligodendroglia", "value": "significant (p<0.0001) reduction"}, {"measurement": "number of intracellular droplets of bodipy-cholesterol", "setting": "[1]; cyclodextrin-treated vs control APOE4 oligodendroglia, normalized to nuclei", "value": "significant (p=0.0092) reduction"}, {"measurement": "levels of MBP localization with neurofilament, comparison with APOE3 co-cultures", "setting": "[2]", "value": "not significantly (p=0.0794) different from APOE3 co-cultures"}, {"measurement": "MBP staining localized along neurofilament staining", "setting": "[2]; untreated APOE4 18.89%, APOE3 62.42%, p=0.0274", "value": 43.44, "unit": "%+/−5.382"}, {"measurement": "Mbp staining", "setting": "APOE4KI mice [3]", "value": "significantly (p=0.0008) increased Mbp staining; also recorded: overall increase in Mbp"}, {"measurement": "bodipy-cholesterol staining co-localizing within 1 μm of Mbp staining", "setting": "APOE4KI mice [3]", "value": "significant (p=0.0423) increase; also recorded: increase in cholesterol-myelin colocalization"}, {"measurement": "bodipy-cholesterol staining accumulated around Olig2-positive nuclei", "setting": "APOE4KI mice [3]; hippocampus", "value": "significantly (p=0.0038) reduced compared to control mice; also recorded: reduction of bodipy-cholesterol staining in cyclodextrin-treated mice"}, {"measurement": "preference for novel object", "setting": "APOE4KI mice [4]", "value": "significantly (p=0.0466) increased preference for interacting with the novel object"}, {"measurement": "total distance moved", "setting": "APOE4KI mice [5]; p=0.1275", "value": "similar"}, {"measurement": "velocity", "setting": "APOE4KI mice [5]; p=0.1711", "value": "similar"}, {"measurement": "duration in the center of the cages", "setting": "APOE4KI mice [5]; p=0.4478", "value": "similar"}, {"measurement": "expression of CYP46A1", "setting": "CYP46A1", "value": "significant (p=0.0011) upregulation"}, {"measurement": "g-ratio", "setting": "APOE4KI mice [6]", "value": "significantly (p<0.0001) lower g-ratio; also recorded: decrease in g-ratio"}]}
{"molecule": "Nc1ncnc2c1ncn2[C@@H]1O[C@H](COP(=O)(O)OP(=O)(O)OP(=O)(O)O)[C@@H](O)[C@H]1O", "note": "[ATP]", "values": [{"measurement": "calcium transients upon ATP uncaging", "setting": "iMGLs [7]; 1 mM Caged ATP", "value": "robust increase in calcium transients"}, {"measurement": "response to extracellular ATP, whole-cell patch-clamp", "setting": "iMGLs [8]", "value": "iMGLs sensed extracellular ATP"}]}
{"molecule": "CN[C@H](CC(=O)O)C(=O)O", "note": "[NMDA]", "values": [{"measurement": "amplitude of calcium transients upon uncaging", "setting": "iMGLs [7]", "value": "increase the amplitude of calcium transients"}]}
{"molecule": "CC(C)c1c(C(=O)Nc2ccccc2)c(-c2ccccc2)c(-c2ccc(F)cc2)n1CC[C@@H](O)C[C@@H](O)CC(=O)O", "note": "[atorvastatin]", "values": [{"measurement": "total bodipy-cholesterol staining", "setting": "[1]", "value": "significantly (p=0.0085 and 0.0450) higher than APOE3/3 oligodendroglia"}]}
{"molecule": "CC(C)CCC[C@@H](C)[C@H]1CC[C@H]2[C@@H]3CC=C4C[C@@H](O)CC[C@]4(C)[C@H]3CC[C@]12C", "note": "[cholesterol]", "values": [{"measurement": "neuronal activity on MEA", "setting": "[9]", "value": "phenocopied our observation of treatment with APOE4 iMGL conditioned media"}, {"measurement": "resting membrane potential (RMP)", "setting": "[10]", "value": "significantly hyperpolarized the resting membrane potential"}, {"measurement": "I-V curve, inwardly-rectifying potassium (Kir) currents", "setting": "[10]; vs non-treated neurons", "value": "greater inwardly-rectifying potassium (Kir) currents"}]}
{"molecule": "N[C@@H](CCC(=O)O)C(=O)O", "note": "[glutamate]", "values": [{"measurement": "amplitude of calcium transients upon uncaging", "setting": "iMGLs [7]", "value": "increase the amplitude of calcium transients"}]}
{"molecule": "NC1=N[C@H](O)[C@H]2[C@H]3O[C@]4(O)O[C@@H]([C@@H](O)[C@@]2(N1)[C@@H]4O)[C@]3(O)CO", "note": "[tetrodotoxin]", "values": [{"measurement": "increase in iMGL calcium transients mediated by stimulated spheroid media", "setting": "forebrain spheroids", "value": "reduced to levels of non-stimulated spheroid media"}]}
